Results as given in patent US20110183366A1, “Methods for achieving a protective ACE2 expression level to treat kidney disease and hypertension” (priority 2004, published 2011).
Entries after “also recorded” stand apart in the source; their conditions may differ. Blank lines part the entries; values can stand above or below the molecule they belong to.

Key:
[1] = target: T1, human recombinant (hr) ACE2 (Homo sapiens, UniProt Q9BYF1); experiment: Fluorescence quenching with 7-Mca-YVADAPK(Dnp) substrate on recombinant ACE2; assay type: biochemical; settings: for quenching of fluorescence: hrACE2 20 nmol/L, inhibitor concentration up to 100 μmol/L
T1 construct: purchased R&D Systems
Protocol: A fluorescent substrate of ACE and ACE2, i.e., 7-Mca-YVADAPK(Dnp) (R&D Systems), was used to concurrently assay ACE and ACE2 protein activity in tissue samples. Cleavage of this substrate by either enzyme removes the 2,4-dinitrophenyl moiety that quenches the fluorescence of the 7-methoxycoumarin moiety, thus resulting in increased fluorescence. To prevent undesirable hydrolysis of the substrate by a range of non-metalloprotease enzymes from mouse tissues, all tests were performed with the addition of an inhibitor cocktail (complete EDTA-free tablets, Roche).
MLN-4760 quenched the signal completely at 1-10 nmol/L, whereas a higher concentration (100 nmol/L) of DX600 was needed to achieve complete quenching of the signal. Therefore, further studies were done using MLN-4760. In tissue extracts, the concentrations of MLN-4760 required for fluorescence quenching were high and more variable.

[2] = tested on: ACE and ACE2 in kidney cortex; experiment: 7-Mca-YVADAPK(Dnp) fluorescence assay in kidney cortex tissue extracts; assay type: biochemical, mouse; settings: for fluorescence signal, % of control: EDTA 1 mmol/L, captopril and MLN-4760 alone or concomitantly
db/m and db/db mice [3] = experiment: Urinary albumin/creatinine ratio during chronic ACE2 inhibition in db/m and db/db mice; assay type: in vivo, mouse
Text: Pharmacological ACE2 inhibition in db/m and db/db mice. […] Vehicle control mice received injections of sterile PBS in the same volume. […] Urinary albumin/creatinine ratio. ELISA kits for murine urinary albumin and creatinine companion kits from Exocell were used according to manufacturer's instructions to measure albumin/creatinine ratio in urine samples. Spot urine samples were collected at 8 weeks of age, before initiating the administration of the ACE2 inhibitor, and the AT1 blocker (at 8 weeks of age) and after 12 and 16 weeks of administration of these agents. Statistical analysis. Statistical analysis was performed using unpaired t-test or ANOVA when appropriate. Significance was defined as p<0.05. Data were expressed as mean±SE. The Effect of chronic ACE2 inhibition on albumin excretion and glomerular fibronectin deposition. To determine the extent to which chronic ACE2 inhibition results in increased albuminuria in the db/db mice, a specific ACE2 inhibitor, MLN-4760, was administered to the mice for 16 consecutive weeks starting at 8 weeks of age. At 8 weeks of age, before starting MLN or vehicle administration, db/db mice from both groups had virtually indistinguishable levels of urinary albumin excretion (UAE; 69.5±18 vs. 81±15 μg albumin/mg creatinine, respectively). […] In db/m mice treated with MLN-4760, UAE was higher than in the vehicle-treated db/m controls, but the difference was small and not statistically significant (55±24 vs. 32±3, μg/mg, respectively, p=NS).

podocytes in culture = settings: cited from earlier work
db/m and db/db mice [4] = experiment: Glomerular fibronectin staining after chronic ACE2 inhibition; assay type: in vivo, mouse
Protocol: Pharmacological ACE2 inhibition in db/m and db/db mice. A specific ACE2 inhibitor, MLN-4760 (kind gift from Millennium Pharmaceuticals, Cambridge, Mass.) was injected to db/m and db/db mice subcutaneously (40-80 mg per kg of body weight (mg/kg/BW), every other day), starting at 8 weeks of age until the mice reached the age of 24 weeks. Vehicle control mice received injections of sterile PBS in the same volume.
Chronic ACE2 inhibition was also associated with an increased glomerular deposition of fibronectin, an extracellular matrix protein. In glomeruli from db/m mice receiving MLN-4760, fibronectin staining was increased as compared to their vehicle-treated db/m counterparts. In db/db mice, the MLN-4760 administration was also associated with an exaggeration of fibronectin staining. The number of glomeruli with strong fibronectin staining was used to semi-quantify the observed changes in kidneys from 12-16 animals in each group.

T1 sequence (Q9BYF1 18-805): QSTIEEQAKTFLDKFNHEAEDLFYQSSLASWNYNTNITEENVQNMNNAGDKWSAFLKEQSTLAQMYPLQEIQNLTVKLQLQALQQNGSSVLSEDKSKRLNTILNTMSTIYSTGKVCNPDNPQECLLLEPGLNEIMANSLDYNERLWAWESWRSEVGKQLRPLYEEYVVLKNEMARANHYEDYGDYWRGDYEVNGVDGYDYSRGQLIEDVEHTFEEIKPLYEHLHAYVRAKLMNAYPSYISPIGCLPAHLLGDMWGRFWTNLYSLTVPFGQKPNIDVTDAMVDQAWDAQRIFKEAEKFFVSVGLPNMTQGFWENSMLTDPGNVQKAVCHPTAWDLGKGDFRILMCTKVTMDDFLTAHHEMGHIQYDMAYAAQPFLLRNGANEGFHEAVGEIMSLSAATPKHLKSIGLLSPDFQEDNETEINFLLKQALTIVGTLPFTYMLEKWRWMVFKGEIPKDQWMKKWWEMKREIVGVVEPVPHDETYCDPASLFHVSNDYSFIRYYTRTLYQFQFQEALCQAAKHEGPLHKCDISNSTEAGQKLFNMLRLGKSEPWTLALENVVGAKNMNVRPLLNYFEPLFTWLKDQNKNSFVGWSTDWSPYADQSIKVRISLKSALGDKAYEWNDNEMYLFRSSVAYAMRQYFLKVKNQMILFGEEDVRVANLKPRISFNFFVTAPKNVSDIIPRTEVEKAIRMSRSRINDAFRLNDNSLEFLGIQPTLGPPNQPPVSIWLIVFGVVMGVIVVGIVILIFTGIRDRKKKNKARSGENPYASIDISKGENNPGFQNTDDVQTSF

quenching of fluorescence [1]: failed to quench fluorescence
Structure (SMILES): O=C(O)CC(Cc1ccccc1)C(=O)O (stereo not drawn) [benzyl succinate]
reduction of fluorescence signal ([2]; benzyl succinate 100 μmol/L): did not reduce significantly the fluorescence signal

Structure (SMILES): CCCc1nc2c(C)cc(-c3nc4ccccc4n3C)cc2n1Cc1ccc(-c2ccccc2C(=O)O)cc1 [telmisartan]
effect on the increase in urinary albumin associated with the ACE2 inhibitor (db/m and db/db mice [3]; db/db mice, telmisartan 2 mg/kg/day in drinking water together with s.c. MLN-4760): prevented the increase in urinary albumin excretion; also recorded: completely prevented the increase in urinary albumin

Structure (SMILES): C[C@H](CS)C(=O)N1CCC[C@H]1C(=O)O [captopril]
effect on stretch-induced increase in ANG II generation (podocytes in culture): did not abrogate the stretch-induced increase in ANG II generation
quenching of fluorescence [1]: failed to quench fluorescence
fluorescence signal, % of control [2]: 24.9±1.1 % of control

Structure (SMILES): O=C(O)CN(CCN(CC(=O)O)CC(=O)O)CC(=O)O [EDTA]
fluorescence signal, % of control [2]: about 16 % of control

concentration for complete quenching of the signal ([1]; hrACE2): 1 to 10 nmol/L
Structure (SMILES): CC(C)C[C@H](N[C@@H](Cc1cncn1Cc1cc(Cl)cc(Cl)c1)C(=O)O)C(=O)O [MLN-4760, (S,S)-2-{1-carboxy-2-[3-(3,5-dichlorobenzyl)-3H-imidazol4-yl]-ethylamino}-4-methylpentanoic acid]
increase in UAE in comparison to vehicle db/db controls (db/m and db/db mice [3]; db/db mice, 16 weeks of treatment, age 24 weeks): about three-fold
albumin/creatinine ratio (db/m and db/db mice [3]; db/db mice, MLN-4760 s.c. 40-80 mg/kg every other day, after 12 weeks of treatment, vehicle 124±23): 474 ± 166 µg/mg
urinary albumin excretion (UAE) (db/m and db/db mice [3]; db/db mice, after 16 weeks of treatment, age 24 weeks, vehicle 247±53.9): 743 ± 200 µg/mg
urinary albumin excretion (UAE) (db/m and db/db mice [3]; db/m mice treated with MLN-4760, vehicle 32±3, p=NS): 55 ± 24 µg/mg
percentage of glomeruli with strong fibronectin staining (db/m and db/db mice [4]; db/db mice treated with MLN-4760, vehicle 28.5%±6.4): 54.8%±4.6
percentage of glomeruli with strong fibronectin staining (db/m and db/db mice [4]; db/m mice receiving MLN-4760, vehicle 17.3%±5.2): 41.1%±4.1
fluorescence signal, % of control [2]: 46.4±0.7 % of control
